Measurements from patent publication US20260209260A1, “VECTORIZED NHC IRIDIUM(III) COMPLEXES AND USE THEREOF IN PHOTODYNAMIC THERAPY AND/OR DIAGNOSTIC” (CENTRE NATIONAL DE LA RECHERCHE SCIENTIFIQUE, priority 2022, published 2026).
Several values for one entry are separate records, joined by “and”; a condition that tells them apart may be missing. Equal entries are not always repeated. Where two headings read alike, the source gives them in different places. Marks after values point to notes of the source that are not given here.

Legend:
[1] = system: MC3T3 osteoblast cells (non-tumor); test: Cell viability assay (MTT), dark and blue light; type: cell-based, Murine; details: for Photosensitizing index (PI): MC3T3, dark vs blue light; for Photosensitizing index (PI) MC3T3: dark vs blue light 458 nm
How it was run: (§1)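 MTT read-out at 570 nm after DMSO solubilization of formazan, 3–4 h MTT at 37 °C, 5% CO2. Treatment lasted 72 h, either fully in the dark or with 10 min irradiation after 8 h of dark incubation. Final DMSO fixed at 0.1% (v/v).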

[2] = system: NIH-3T3 fibroblast cells (non-tumor); test: Cell viability assay (MTT), dark and blue light; type: cell-based, Murine; details: for Photosensitizing index (PI): NIH-3T3, dark vs blue light; for Photosensitizing index (PI) NIH-3T3: dark vs blue light 458 nm
How it was run: as §1

[3] = Luminescence emission spectra and quantum yield; type: physicochemical; details: for λem: CH2Cl2, room temperature, λexc 365 nm or 470 nm; for ΦP emission phosphorescence quantum yield: room temperature, reference POPOP in hexane or rhodamine B in ethanol
How it was run: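 Spectrofluorometric fluorescence/phosphorescence emission spectra of the iridium(III) complexes recorded in CH2Cl2 at room temperature. Quantum yields by the Demas–Crosby relative method on solutions at RT, from integrated emission band areas versus a reference standard of known yield, corrected for solvent refractive index.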

[4] = Lipophilicity: octanol-water partition coefficient, shake-flask method
How it was run: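 Octanol and water mutually pre-saturated for 24 h; compound ([…] stock in aqueous phase) partitioned against equal volume n-octanol, mixed 15 min, phases separated by centrifugation.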

[5] = UV/Vis absorption spectra; type: physicochemical; details: room temperature, air-saturated CH2Cl2 or CH2Cl2/MeOH (1:1), 50 μM; ε in brackets, sh = shoulder
Experimental: UV/Vis absorption spectra were recorded at RT on solutions contained in quartz cuvettes (optical pathlength 1 cm, Hellma®) with a PerkinElmer® UV/VIS/NIR spectrophotometer Lambda 950 and a PerkinElmer® detector UV/VIS/NIR Accessory 2D Detector Module.

[6] = Emission lifetime measurement; type: physicochemical
How it was run: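 Emission lifetimes measured by time-correlated single-photon counting (0.5 ns time resolution), excitation from a D2 lamp and a 405 nm pulsed diode laser. Estimated error 5% on lifetime.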

[7] = 8 h in the dark, blue light 458 nm 10 min, then dark up to 72 h, read-out: GI50 MC3T3 Blue
[8] = MC3T3, blue light, read-out: GI50
[9] = in the dark, 72 h, read-out: GI50 MC3T3 Dark
[10] = 8 h in the dark, blue light 458 nm 10 min, then dark up to 72 h, read-out: GI50 NIH-3T3 Blue
[11] = NIH-3T3, blue light, read-out: GI50
[12] = in the dark, 72 h, read-out: GI50 NIH-3T3 Dark
[13] = n-octanol/water, shake-flask, mean of at least three determinations

F[P-](F)(F)(F)(F)F.O=C(O)CC[C@H](NC(=O)N[C@@H](CCCCNC(=O)CCn1cc[n+]2[c]1[Ir-3]13([c]4ccccc4-c4c5ccccc5cc[n+]41)([c]1ccccc1-c1c4ccccc4cc[n+]13)[n+]1ccccc1-2)C(=O)O)C(=O)O [III-h]
GI50 [1, 7]: 8.3 µM
GI50 [1, 8]: 8.3 µM
Photosensitizing index (PI) [1]: 6.3
GI50 ([1]; MC3T3, dark, read-out: GI50): 52.4 µM
GI50 [1, 9]: 52.4 µM
GI50 [2, 10]: 19 µM
GI50 [2, 11]: 19 µM
Photosensitizing index (PI) [2]: >5.3
GI50 ([2]; NIH-3T3, dark, read-out: GI50): > 100 µM
GI50 [2, 12]: > 100 µM
λem [3]: 628 nm
ΦP emission phosphorescence quantum yield [3]: 3.0%
Log P [4, 13]: 0.88 ± 0.02
λmax (nm) ε (M^−1 · cm^−1) [5]: 336 (sh) (23695), 352 (sh) (22270), 378 (sh) (15520), 435 (9310) nm (M^−1 · cm^−1)
τ1 emission lifetime [6]: 215 ns

F[P-](F)(F)(F)(F)F.O=C(O)CC[C@H](NC(=O)N[C@@H](CCCCNC(=O)CCn1cc[n+]2[c]1[Ir-3]13([c]4c(sc5ccccc45)-c4cccc[n+]41)([c]1c(sc4ccccc14)-c1cccc[n+]13)[n+]1ccccc1-2)C(=O)O)C(=O)O [III-j]
GI50 [1, 7]: 12.5 µM
GI50 [1, 8]: 12.5 µM
Photosensitizing index (PI) [1]: >20
GI50 ([1]; MC3T3, dark, read-out: GI50): > 250 µM
GI50 [2, 10]: 10.8 µM
GI50 [2, 11]: 10.8 µM
Photosensitizing index (PI) [2]: >9.3
GI50 ([2]; NIH-3T3, dark, read-out: GI50): > 100 µM
GI50 [2, 12]: > 100 µM
ΦP emission phosphorescence quantum yield [3]: 3.0%
Log P [4]: −0.38 ± 0.03
λmax (nm) ε (M^−1 · cm^−1) [5]: 324 (26900), 343 (sh)^b (24560), 428 (10800) nm (M^−1 · cm^−1)
τ1 emission lifetime [6]: 197 ns

F[P-](F)(F)(F)(F)F.O=C(O)CC[C@H](NC(=O)N[C@@H](CCCCNC(=O)CCn1cc[n+]2[c]1[Ir-3]13([c]4ccccc4-c4sc5ccccc5[n+]41)([c]1ccccc1-c1sc4ccccc4[n+]13)[n+]1ccccc1-2)C(=O)O)C(=O)O [III-k]
GI50 [1, 7]: 33.8 µM
GI50 [1, 8]: 33.8 µM
Photosensitizing index (PI) [1]: 2.8
GI50 ([1]; MC3T3, dark, read-out: GI50): 95.1 µM
GI50 [1, 9]: 95.1 µM
GI50 [2, 10]: 30 µM
GI50 [2, 11]: 30 µM
Photosensitizing index (PI) [2]: >3.3
GI50 ([2]; NIH-3T3, dark, read-out: GI50): > 100 µM
GI50 [2, 12]: > 100 µM
ΦP emission phosphorescence quantum yield [3]: 6.1%
Log P [4]: −0.14 ± 0.01
λmax (nm) ε (M^−1 · cm^−1) [5]: 321 (39070), 370 (sh) (12560), 406 (10170) nm (M^−1 · cm^−1)
τ1 emission lifetime [6]: 649 ns

F[P-](F)(F)(F)(F)F.O=C(NCCCn1cc[n+]2[c]1[Ir-3]13([c]4ccccc4-c4sc5ccccc5[n+]41)([c]1ccccc1-c1sc4ccccc4[n+]13)[n+]1ccccc1-2)[c-]1cccc1.[Fe+2].c1cc[cH-]c1 [IV-k]
GI50 [1, 8]: 5.1 µM
Photosensitizing index (PI) [1]: 2.3
GI50 ([1]; MC3T3, dark, read-out: GI50): 10.2 µM and 11.6 µM
GI50 [2, 11]: 11.6 µM
Photosensitizing index (PI) [2]: 1.6
GI50 ([2]; NIH-3T3, dark, read-out: GI50): 18.7 µM
ΦP emission phosphorescence quantum yield [3]: 0.08%
Log P [4, 13]: 0.74 ± 0.05
λmax (nm) ε (M^−1 · cm^−1) [5]: 321 (24910), 371 (sh) (7200), 407 (5940) nm (M^−1 · cm^−1)
τ1 emission lifetime [6]: 212 ns

F[P-](F)(F)(F)(F)F.O=C(CCCC[C@@H]1SC[C@@H]2NC(=O)N[C@@H]21)NCCCn1cc[n+]2[c]1[Ir-3]13([c]4ccccc4-c4c5ccccc5cc[n+]41)([c]1ccccc1-c1c4ccccc4cc[n+]13)[n+]1ccccc1-2 [I-h]
GI50 [1, 7]: 5 µM
Photosensitizing index (PI) MC3T3 [1]: 8.4
GI50 [1, 9]: 42.2 µM
GI50 [2, 10]: 10.4 µM
Photosensitizing index (PI) NIH-3T3 [2]: 9.7
GI50 [2, 12]: 101 µM
ΦP emission phosphorescence quantum yield [3]: 3.0%
Log P [4, 13]: 0.87 ± 0.02
λmax (nm) ε (M^−1 · cm^−1) [5]: 337 (sh) (12520), 352 (sh) (11890), 380 (sh) (8100), 436 (4855) nm (M^−1 · cm^−1)
τ1 emission lifetime [6]: 202 ns

F[P-](F)(F)(F)(F)F.O=C(NCCCn1cc[n+]2[c]1[Ir-3]13([c]4ccccc4-c4c5ccccc5cc[n+]41)([c]1ccccc1-c1c4ccccc4cc[n+]13)[n+]1ccccc1-2)[c-]1cccc1.[Fe+2].c1cc[cH-]c1 [IV-h]
Photosensitizing index (PI) [1]: 3.8
GI50 ([1]; MC3T3, dark, read-out: GI50): 17.1 µM
GI50 [2, 11]: 4.4 µM
Photosensitizing index (PI) [2]: 3.0
ΦP emission phosphorescence quantum yield [3]: 0.07%
Log P [4]: 0.81 ± 0.07
λmax (nm) ε (M^−1 · cm^−1) [5]: 334 (sh) (19440), 351 (sh) (18355), 380 (12745), 435 (7870) nm (M^−1 · cm^−1)
τ1 emission lifetime [6]: 178 ns

F[P-](F)(F)(F)(F)F.O=C(CCCC[C@@H]1SC[C@@H]2NC(=O)N[C@@H]21)NCCCn1cc[n+]2[c]1[Ir-3]13([c]4ccccc4-c4ccc5ccccc5[n+]41)([c]1ccccc1-c1ccc4ccccc4[n+]13)[n+]1ccccc1-2 [I-g]
GI50 [1, 7]: 31.4 µM
Photosensitizing index (PI) MC3T3 [1]: 1.8
GI50 [1, 9]: 85.2 µM and 55.2 µM
GI50 [2, 10]: 81.7 µM and 61.7 µM
Photosensitizing index (PI) NIH-3T3 [2]: 1.8
GI50 [2, 12]: 110 µM
λem [3]: 593-652 nm
ΦP emission phosphorescence quantum yield [3]: <0.1%
Log P [4]: 1.26 ± 0.04
λmax (nm) ε (M^−1 · cm^−1) [5]: 336 (19000), 437 (4600) nm (M^−1 · cm^−1)
τ1 emission lifetime [6]: 203 ns

COC(=O)c1ccc2[n+](c1)[Ir-3]13([c]4ccccc4-2)([c]2ccccc2-c2ccc(C(=O)OC)c[n+]21)[c]1n(CCCNC(=O)CCCC[C@@H]2SC[C@@H]4NC(=O)N[C@@H]42)cc[n+]1-c1cccc[n+]13.F[P-](F)(F)(F)(F)F [I-e]
GI50 [1, 7]: 41.1 µM
Photosensitizing index (PI) MC3T3 [1]: 1.4
GI50 [1, 9]: 58.8 µM and 56.8 µM
GI50 [2, 10]: 135 µM
Photosensitizing index (PI) NIH-3T3 [2]: >1.9
GI50 [2, 12]: > 250 µM
λem [3]: 511-550 nm
ΦP emission phosphorescence quantum yield [3]: 3.7%
Log P [4]: 0.25 ± 0.04
λmax (nm) ε (M^−1 · cm^−1) [5]: 310 (sh) (19500), 365 (sh) (4690), 432 (4155) nm (M^−1 · cm^−1)
τ1 emission lifetime [6]: 224 ns

F[P-](F)(F)(F)(F)F.O=C(NCCCn1cc[n+]2[c]1[Ir-3]13([c]4c(sc5ccccc45)-c4cccc[n+]41)([c]1c(sc4ccccc14)-c1cccc[n+]13)[n+]1ccccc1-2)[c-]1cccc1.[Fe+2].c1cc[cH-]c1 [IV-j]
GI50 [1, 8]: 3.9 µM
Photosensitizing index (PI) [1]: 4.2
GI50 [2, 11]: 14 µM
Photosensitizing index (PI) [2]: 4.5
GI50 ([2]; NIH-3T3, dark, read-out: GI50): 62.8 µM
ΦP emission phosphorescence quantum yield [3]: 0.01%
Log P [4]: 1.07 ± 0.07
λmax (nm) ε (M^−1 · cm^−1) [5]: 322 (15400), 342 (sh) (14040), 434 (6150) nm (M^−1 · cm^−1)
τ1 emission lifetime [6]: 196 ns

F[P-](F)(F)(F)(F)F.O=C(CCCC[C@@H]1SC[C@@H]2NC(=O)N[C@@H]21)NCCCn1cc[n+]2[c]1[Ir-3]13([c]4ccccc4-c4sc5ccccc5[n+]41)([c]1ccccc1-c1sc4ccccc4[n+]13)[n+]1ccccc1-2 [I-k]
GI50 [1, 7]: 19.2 µM
Photosensitizing index (PI) MC3T3 [1]: 1.3
GI50 [1, 9]: 25.8 µM
GI50 [2, 10]: 31.1 µM
Photosensitizing index (PI) NIH-3T3 [2]: 2.4
GI50 [2, 12]: 75.8 µM
ΦP emission phosphorescence quantum yield [3]: 7.0%
Log P [4]: 0.87 ± 0.03
λmax (nm) ε (M^−1 · cm^−1) [5]: 321 (25835), 372 (sh) (7480), 406 (6130) nm (M^−1 · cm^−1)
τ1 emission lifetime [6]: 322 ns
